# Key:
# MDR-K. pneumoniae = test: Resistance development study, serial passaging at sub-MIC; assay type: cell-based, Klebsiella pneumoniae; details: 14 passages over 2 weeks
# Experimental: (§1) The resistance development study was performed following the protocol published earlier. […] To compare the result, the last-resort gram-negative antibiotics, Polymyxin-B, and carbapenem type, Imipenem, were used in the study. According to the protocol elaborated for the MIC assay above, the MIC values of compounds and antibiotics were determined against corresponding bacteria overnight. The next day, a new MIC assay was performed where the bacterial suspension was prepared from the bacteria grown at the sub-MIC (MIC/2) of compound concentration of the first-day experiment. The next 14 continuous passages were repeated as described above. The resistance development was calculated as the fold increase of MIC by dividing MIC to the initial MIC values of every passage and then plotted against the passage number. These experiments were performed in triplicate.
# (§2) MDR bacteria employ various strategies inherently or adaptively to build up resistance, which becomes a serious health concern. […] Bacteria were exposed to continuous serial passaging at the sub-MIC level over 2 weeks. Antibiotics imipenem and polymyxin-B were used as controls.
# MDR-P. aeruginosa = test: as above; assay type: cell-based, Pseudomonas aeruginosa; details: 14 passages over 2 weeks
# Experimental: as §1, §2
# [1] = system: mouse red blood cells (RBCs)
# Text: Hemolysis was given as HC50 where the concentration of a polymer causes 50% lysis of RBCs. […] RBC in PBS was used as the negative control to subtract any background signals.
# [2] = system: MDR-P. aeruginosa biofilm; test: Biofilm eradication, quantification through bacterial cell viability; assay type: cell-based, Pseudomonas aeruginosa; details: 16×MIC
# Experimental: (§3) 18 mm glass coverslips were sterilized with flame after rinsing with ethanol. The bacterial biofilms were grown by following the previously published protocol. After the preparation of mid-log grown MDR-P. aeruginosa bacteria in TSB media, bacteria concentration was adjusted in NB with 1% (w/v) glucose and 1% (w/v) NaCl supplements to ˜10^5 CFU/mL. 2 mL of the diluted bacterial cell culture was used to fill the 6-well plate and 18 mm sterilized glass coverslips were added to each well. The plate was incubated at 37° C. for 72 h. After 72 h, 1×PBS (pH=7.4) was used to wash away unadhered planktonic bacteria. The carefully washed coverslips containing surface-attached biofilms were placed into a new 6-well sterile plate. Later, various concentration of 1-QAC-Hex (2 mL) was added into the wells and incubated for 24 h. Polymyxin-B was used as a control antibiotic. As a negative control, 2 mL of media was added without compound. The following three experiments were adjusted in the further steps as follows.
# Once again, coverslips were washed with 1×PBS and transferred to another new, sterile plate. Afterward, 2 mL of trypsin-EDTA solution (diluted in saline at a 1:10 ratio) was added to each well and incubated for 15 min. Samples of 20 μL of each concentration were then 10-fold serially diluted in 1×PBS. […]
# [3] = system: MDR-P. aeruginosa biofilm; test: Biofilm eradication, confocal fluorescence microscopy (SYTO 9/PI, Z-stack); assay type: cell-based, Pseudomonas aeruginosa
# Experimental: as §3
# Coverslips were washed with 1×PBS and left to dry for 2 min. MDR-P. aeruginosa biofilm was simultaneously stained with equal volumes of (5 μL) SYTO 9 (60 μM) and PI (15 μM) and was placed on the slide immediately followed by incubation in darkness for 15 min. The glass coverslips images on the slide were captured with a Zeiss LSM 410 Confocal Laser Scanning Microscope in 40× magnification. […]
Molecule,change in MIC after serial passaging (MDR-K. pneumoniae),change in MIC after serial passaging (MDR-P. aeruginosa),lysis of RBCs [1],"killing of viable bacteria within the biofilm, in words [2]","thickness of biofilm ([3]; 16×MIC, control 9.96 μm)","live/dead cells in biofilm after treatment ([3]; polymyxin-B 16×MIC, 3-QAC-Hex 16×MIC and 32×MIC)"
C[C@@H](O)[C@H]1C(=O)N2C(C(=O)O)=C(SCCN=CN)C[C@H]12 [imipenem],16 fold,16 fold,,,,
Triton-X 100,,,100%,,,
polymyxin-B,16 fold,8 fold,,unable to kill the viable bacteria protected within the biofilm,9.03 μm,a large amount of live cells

# — patent publication US20250360162A1, “Naphthoic Acid-Derived Polymers as Antimicrobial Agents” (UNIVERSITY OF SOUTH CAROLINA, priority 2024, published 2025)
